Laboratory results: patent US11554113B2, “Methods for treating disorders or diseases associated with hyperlipidemia and hypercholesterolemia while minimizing side-effects” (The Trustees of the University of Pennsylvania, priority 2004, dated 2023)
Read-outs that look alike come from different tables or passages of the source. Values belong to the compound of their own block, whether it stands above or below them.

What was measured:
cholesterol = settings: in vivo; cited from earlier work
LDL-C = settings: cited from earlier work
[1] = molecular target: microsomal triglyceride transfer protein (MTP) (Homo sapiens, UniProt P55157); settings: for mean percent change in apoB / mean percent change in non-HDL cholesterol / mean percent change in total cholesterol: 6 hoFH subjects
Method: This theory was applied in designing a study investigating the safety, tolerability and efficacy of BMS-201038 in patients with homozygous familial hypercholesterolemia (hoFH).
Subjects received once daily dosing of 4 doses of BMS-201038 (0.03, 0.1, 0.3 and 1.0 mg/kg) for 4 weeks at each dose. We chose an initial low dose (0.03 mg/kg) that while not expecting to be efficacious, would be a dose that would be expected to be safe and well tolerated (˜2.1 mg in the 70 kg person) The remaining three doses were chosen by calculating ½ log units of the previous dose.

[2] = tested on: low density lipoprotein cholesterol (LDL-C); settings: cited from earlier work
[3] = dogs, six-month toxicity study, doses 0-10 mg/kg; cited from earlier work
cholesterol levels = settings: cited from earlier work
apoAI secretion = settings: cell culture studies; read-out: IC50 for inhibition of apoAI secretion; cited from earlier work
apoB secretion = settings: cell culture studies; read-out: IC50 for inhibition of apoB secretion; cited from earlier work
[4] = 25 mg per day for 4 weeks, primary hypercholesterolemia, some patients; cited from earlier work
[5] = rats, cited from earlier work
[6] = 0.3 mg/kg once daily for 4 weeks (second highest dose)
[7] = 1.0 mg/kg once daily for 4 weeks (highest dose)
[8] = dose of 10 mg/kg, rabbits that lack a functional LDL receptor

microsomal triglyceride transfer protein (MTP), sequence (P55157 19-894): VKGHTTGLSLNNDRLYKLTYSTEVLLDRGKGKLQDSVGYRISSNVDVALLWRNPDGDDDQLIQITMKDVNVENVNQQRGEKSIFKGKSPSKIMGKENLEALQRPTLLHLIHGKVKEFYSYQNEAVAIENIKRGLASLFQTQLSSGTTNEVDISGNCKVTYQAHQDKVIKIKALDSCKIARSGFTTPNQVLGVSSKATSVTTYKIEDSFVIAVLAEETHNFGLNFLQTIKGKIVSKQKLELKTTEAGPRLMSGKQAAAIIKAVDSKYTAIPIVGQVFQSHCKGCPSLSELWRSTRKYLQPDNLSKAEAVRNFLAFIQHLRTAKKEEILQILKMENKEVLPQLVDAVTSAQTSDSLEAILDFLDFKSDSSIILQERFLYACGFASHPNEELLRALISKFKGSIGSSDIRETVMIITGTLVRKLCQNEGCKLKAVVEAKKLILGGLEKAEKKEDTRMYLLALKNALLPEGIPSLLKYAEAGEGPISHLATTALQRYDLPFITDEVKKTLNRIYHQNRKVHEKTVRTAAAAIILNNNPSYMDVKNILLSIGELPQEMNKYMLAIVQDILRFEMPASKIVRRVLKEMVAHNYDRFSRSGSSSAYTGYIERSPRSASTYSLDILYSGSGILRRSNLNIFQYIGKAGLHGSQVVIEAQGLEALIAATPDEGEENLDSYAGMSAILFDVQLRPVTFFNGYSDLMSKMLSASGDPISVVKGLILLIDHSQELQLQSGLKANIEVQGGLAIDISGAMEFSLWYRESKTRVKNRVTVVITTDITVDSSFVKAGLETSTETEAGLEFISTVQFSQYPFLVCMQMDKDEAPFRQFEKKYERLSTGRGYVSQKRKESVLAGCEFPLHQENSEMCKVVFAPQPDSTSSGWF
microsomal triglyceride transfer protein (MTP), sequence (P07237 18-508 partner): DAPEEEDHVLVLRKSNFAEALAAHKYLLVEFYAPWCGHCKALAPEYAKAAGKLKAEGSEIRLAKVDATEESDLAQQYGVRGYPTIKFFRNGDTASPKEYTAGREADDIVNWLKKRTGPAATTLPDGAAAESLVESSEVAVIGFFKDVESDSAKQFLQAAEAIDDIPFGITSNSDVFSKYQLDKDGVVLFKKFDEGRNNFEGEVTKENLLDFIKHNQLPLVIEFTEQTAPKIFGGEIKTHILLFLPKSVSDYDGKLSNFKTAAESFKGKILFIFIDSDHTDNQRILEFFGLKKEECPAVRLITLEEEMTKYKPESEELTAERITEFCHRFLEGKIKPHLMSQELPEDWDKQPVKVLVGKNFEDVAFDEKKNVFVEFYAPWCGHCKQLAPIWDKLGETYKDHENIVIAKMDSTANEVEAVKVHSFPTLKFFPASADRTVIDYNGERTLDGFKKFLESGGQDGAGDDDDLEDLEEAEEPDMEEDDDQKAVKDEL

SMILES: O=C1[C@H](CC[C@H](O)c2ccc(F)cc2)[C@@H](c2ccc(O)cc2)N1c1ccc(F)cc1 [ezetimibe]
reduction of LDL cholesterol (cholesterol): about 18%
total reduction of LDL-C levels (LDL-C; ezetimibe 10 mg/day added to atorvastatin or simvastatin 80 mg/day, hoFH): 27%

mean percent change in apoB [1, 6]: −15±16%
mean percent change in non-HDL cholesterol [1, 6]: −31±9%
mean percent change in total cholesterol [1, 6]: −30±9%
mean percent change in apoB [1, 7]: −55±13%
mean percent change in non-HDL cholesterol [1, 7]: −60±8.8%
mean percent change in total cholesterol [1, 7]: −58±8.5%
increase in hepatic fat by NMRS from baseline to 4 weeks on 1 mg/kg ([1]; human, in vivo, 4 weeks): 3-37%
SMILES: O=C(NC1CCN(CCCCC2(C(=O)NCC(F)(F)F)c3ccccc3-c3ccccc32)CC1)c1ccccc1-c1ccc(C(F)(F)F)cc1 [BMS-201038, N-(2,2,2-Trifluorethyl)-9-[4-[4-[[[4′-(trifluoromethyl) [1,1′biphenyl]-2-Y1]carbonyl]amino]-1-piperidinyl]butyl]9H-fluorene-9-carboxamide, methanesulfonate]
reduction of low density lipoprotein cholesterol (LDL-C) ([2]; healthy volunteers with hypercholesterolemia): up to 65%
doses at which gastrointestinal side effects/steatorrhea, elevation of serum transaminases and hepatic fat accumulation were primarily observed ([2]; human clinical development): ≥ 25 mg/day
subacute inflammation and single-cell necrosis of hepatocytes and histiocytosis (phospholipidosis) in the lungs [3]: not in dogs
LDL cholesterol reduction (cholesterol levels; 10 mg/kg, animal study by Wetterau and colleagues): greater than 80%
cholesterol levels (cholesterol levels; [8]): essentially normalized
plasma AST or ALT (cholesterol levels; [8]): no alteration
ED50 value for lowering cholesterol (cholesterol levels; rabbits that lack a functional LDL receptor): 1.9 mg/kg
IC50 (apoAI secretion): 6.5 µM
IC50 (apoB secretion): 0.0008 µM
gastrointestinal (GI) symptoms (steatorrhea, abdominal cramping and distention) [4]: clinically significant
doses associated with subacute inflammation and single-cell necrosis of hepatocytes and histiocytosis (phospholipidosis) in the lungs ([5]; six-month toxicity study, doses 0-20 mg/kg): ≥ 0.2 mg/kg
hepatic accumulation of lipids at the end of a 1-month washout period [5]: reversed

SMILES: CC(C)c1c(C(=O)Nc2ccccc2)c(-c2ccccc2)c(-c2ccc(F)cc2)n1CC[C@@H](O)C[C@@H](O)CC(=O)O [atorvastatin]
mean LDL-C reduction (LDL-C; genotype-confirmed hoFH, maximal dose of statins 80 mg/day): about 5.5%
